In US20080194652A1 (priority 2004, published 2008):

Tests used:
P. falciparum strain 7G8 = assay: 72 hour microplate growth assay, SybrGreen I-based fluorescence readout, drug-resistance reversal; assay type: cell-based, Plasmodium falciparum; conditions: for decrease of CQ EC50 (chloroquine resistance reversal): with chloroquine, equimolar comparison of (+) and (+/−) CP; for resistance reversal activity inferred from comparison of (+/−) with (+): indirect assessment, chloroquine, chloroquine and quinine
Procedure: (§1) Results were determined by SybrGreen I-based fluorescence assay.
(§2) This indirect assessment was required because only the antihistaminically-active (+) and (+/−) forms are available.

P. falciparum strain W2 = assay: as above; assay type: cell-based, Plasmodium falciparum; conditions: for decrease of CQ EC50 (chloroquine resistance reversal): with chloroquine, equimolar comparison of (+) and (+/−) CP; for resistance reversal activity inferred from comparison of (+/−) with (+): indirect assessment, chloroquine, chloroquine and quinine
Procedure: as §1, §2

resistant P. falciparum = conditions: literature; cited from earlier work
rodent malaria = conditions: in vivo; cited from earlier work
[1] = tested on: CQ-resistant P. falciparum infection; conditions: cited from earlier work
Plasmodium falciparum = assay: in vitro drug-resistance reversal, strain not stated; assay type: cell-based
[2] = tested on: cardiac electrophysiology; conditions: cited from earlier work
[3] = in vivo; cited from earlier work
[4] = listed as (+/−)chlorpheniramine
[5] = with quinine, equimolar comparison

In the case of `CN(C)CCC(c1ccc(Cl)cc1)c1ccccn1` (racemic) [(+/−) CP, chlorpheniramine], the “decrease of CQ EC50 (chloroquine resistance reversal)” value (“decrease of CQ EC50” for short) (P. falciparum strain 7G8) is reported as “at least equivalent to (+) CP”, the “decrease of CQ EC50” value (P. falciparum strain 7G8; [4]) is reported as “equivalent or slightly superior to the (+) isomer” and the quinine resistance reversal (P. falciparum strain 7G8; [5]) is reported as “equivalent or slightly superior to the (+) isomer”. For the same compound, the “decrease of CQ EC50” value (P. falciparum strain W2) was “at least equivalent to (+) CP”, the “decrease of CQ EC50” value (P. falciparum strain W2; [4]) was “equivalent or slightly superior to the (+) isomer” and the quinine resistance reversal (P. falciparum strain W2; [5]) was “equivalent or slightly superior to the (+) isomer”. For the same compound, the “chloroquine resistance reversal in vitro” value (resistant P. falciparum) was “demonstrated effectiveness”, the “effectiveness in rodent malaria models” value (rodent malaria) was “demonstrated effectiveness” and the “drowsiness in clinical trials” value ([1]; in vivo) was “drowsiness was consistently found”.
With `CN(C)CCC(c1ccc(Cl)cc1)c1ccccn1` (single isomer, unassigned; (-)) [(−) CP, (−) chlorpheniramine] the “resistance reversal activity inferred from comparison of (+/−) with (+)” value (shortened to “resistance reversal activity inferred”) (P. falciparum strain 7G8) was “active”, the “resistance reversal activity inferred” value (P. falciparum strain 7G8; listed as (−)chlorpheniramine) was “must be active” and the “resistance reversal activity inferred” value (P. falciparum strain W2) was “active”. The “resistance reversal activity inferred” value (P. falciparum strain W2; listed as (−)chlorpheniramine) was “must be active”, the chloroquine resistance reversal (Plasmodium falciparum; inferred for the (−) isomer) was “reverses” and the quinine resistance reversal (Plasmodium falciparum; inferred for the (−) isomer) was “reverses”. For the same compound, the “change of cardiac electrophysiology” value [2] was “only at in vitro concentrations far above those needed to restore chloroquine sensitivity”.
For `CN(C)CC[C@@H](c1ccc(Cl)cc1)c1ccccn1` [(+) CP, (+) chlorpheniramine], the “decrease of CQ EC50” value (P. falciparum strain 7G8) was “active” and the “decrease of CQ EC50” value (P. falciparum strain W2) was “active”.
In the case of `CN(C)CCC(c1ccc(Br)cc1)c1ccccn1` (stereo not shown) [brompheniramine], the chloroquine resistance reversal (Plasmodium falciparum; with chloroquine, in vitro) is reported as “chloroquine resistance reversal agents”.
In the case of `CNCCCN1c2ccccc2CCc2ccccc21` [desipramine], the “chloroquine resistance reversal in primate animal trial” value [3] is listed as “reversed chloroquine resistance”, the “chloroquine resistance reversal in vitro” value (resistant P. falciparum) is listed as “reversed chloroquine resistance” and the “clinical outcome / cure rates” value ([1]; co-administered with chloroquine, clinical trials) is listed as “ineffective”.
With `CN(C)CCC(c1ccc(F)cc1)c1ccccn1` (stereo not shown) [flupheniramine] the chloroquine resistance reversal (Plasmodium falciparum; with chloroquine, in vitro) was “chloroquine resistance reversal agents”.
In the case of `CN(C)CCC(c1ccccc1)c1ccccn1` (stereo not shown) [pheniramine], the chloroquine resistance reversal (Plasmodium falciparum; with chloroquine, in vitro) is reported as “chloroquine resistance reversal agents”.
For `COc1ccc(CCN(C)CCCC(C#N)(c2ccc(OC)c(OC)c2)C(C)C)cc1OC` (stereo not shown) [verapamil], the “chloroquine resistance reversal in vitro” value (resistant P. falciparum) is listed as “partially restored chloroquine sensitivity”.
